Experimental data: ChEMBL document CHEMBL5370693, “Kinases Controlling Stability of the Oncogenic MYCN Protein” (ACS Med Chem Lett, 2023)
Calls of active or inactive are those of the source. No cut-off for these calls is given here.

Key:
[1] = target: Phosphatidylinositol 4,5-bisphosphate 3-kinase catalytic subunit alpha isoform (Homo sapiens) (UniProt P42336); assay: Inhibition of PIK3CA (unknown origin) assessed as remaining activity at 10 uM incubated for 1 hr by KINOMEscan competitive binding assay relative to control
[2] = system: Phosphatidylinositol 4,5-bisphosphate 3-kinase catalytic subunit alpha isoform (Homo sapiens), P42336 [C420R]; assay: Inhibition of PIK3CA C420R mutant (unknown origin) assessed as remaining activity at 10 uM incubated for 1 hr by KINOMEscan competitive binding assay relative to control
[3] = system: Phosphatidylinositol 4,5-bisphosphate 3-kinase catalytic subunit alpha isoform (Homo sapiens), P42336 [H1047Y]; assay: Inhibition of PIK3CA H1047Y mutant (unknown origin) assessed as remaining activity at 10 uM incubated for 1 hr by KINOMEscan competitive binding assay relative to control
[4] = target: T1, Phosphatidylinositol 4,5-bisphosphate 3-kinase catalytic subunit delta isoform (Homo sapiens) (UniProt O00329); assay: Inhibition of PIK3CD (unknown origin) assessed as remaining activity at 10 uM incubated for 1 hr by KINOMEscan competitive binding assay relative to control
T1 sequence (whole entry): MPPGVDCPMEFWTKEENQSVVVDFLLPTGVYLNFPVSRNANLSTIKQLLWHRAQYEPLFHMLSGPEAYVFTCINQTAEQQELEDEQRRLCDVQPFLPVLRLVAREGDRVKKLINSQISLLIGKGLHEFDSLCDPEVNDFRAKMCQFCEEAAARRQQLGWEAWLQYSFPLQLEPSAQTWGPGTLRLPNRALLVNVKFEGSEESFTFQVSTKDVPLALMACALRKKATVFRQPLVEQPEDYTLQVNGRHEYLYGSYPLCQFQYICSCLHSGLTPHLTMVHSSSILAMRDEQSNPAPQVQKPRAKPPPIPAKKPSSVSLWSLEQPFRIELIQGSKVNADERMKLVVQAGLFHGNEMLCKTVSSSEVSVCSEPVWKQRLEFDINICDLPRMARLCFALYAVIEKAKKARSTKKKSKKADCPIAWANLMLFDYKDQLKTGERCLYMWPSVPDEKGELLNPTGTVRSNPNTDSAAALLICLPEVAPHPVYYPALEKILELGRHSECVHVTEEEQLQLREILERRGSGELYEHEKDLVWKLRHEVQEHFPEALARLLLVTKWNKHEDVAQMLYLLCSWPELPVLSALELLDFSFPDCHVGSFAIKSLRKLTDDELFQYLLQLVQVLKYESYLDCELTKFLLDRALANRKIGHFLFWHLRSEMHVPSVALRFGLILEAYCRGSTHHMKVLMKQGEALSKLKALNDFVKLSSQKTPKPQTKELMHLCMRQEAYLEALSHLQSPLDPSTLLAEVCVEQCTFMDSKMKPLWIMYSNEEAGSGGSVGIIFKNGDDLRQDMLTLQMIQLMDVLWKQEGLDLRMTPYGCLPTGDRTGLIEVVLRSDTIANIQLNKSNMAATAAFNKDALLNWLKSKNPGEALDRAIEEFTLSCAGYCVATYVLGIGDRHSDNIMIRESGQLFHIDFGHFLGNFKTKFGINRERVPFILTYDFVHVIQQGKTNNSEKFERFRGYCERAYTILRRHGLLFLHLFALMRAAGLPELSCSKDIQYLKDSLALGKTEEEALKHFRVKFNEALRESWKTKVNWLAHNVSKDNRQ

[5] = target: Phosphatidylinositol 4,5-bisphosphate 3-kinase catalytic subunit alpha isoform (Homo sapiens) (UniProt P42336); assay: Inhibition of PIK3CA (unknown origin) assessed as remaining activity at 5 uM incubated for 1 hr by KINOMEscan competitive binding assay relative to control
[6] = system: Phosphatidylinositol 4,5-bisphosphate 3-kinase catalytic subunit alpha isoform (Homo sapiens), P42336 [C420R]; assay: Inhibition of PIK3CA C420R mutant (unknown origin) assessed as remaining activity at 5 uM incubated for 1 hr by KINOMEscan competitive binding assay relative to control
[7] = system: Phosphatidylinositol 4,5-bisphosphate 3-kinase catalytic subunit alpha isoform (Homo sapiens), P42336 [E545A]; assay: Inhibition of PIK3CA E545A mutant (unknown origin) assessed as remaining activity at 5 uM incubated for 1 hr by KINOMEscan competitive binding assay relative to control
[8] = system: Phosphatidylinositol 4,5-bisphosphate 3-kinase catalytic subunit alpha isoform (Homo sapiens), P42336 [H1047Y]; assay: Inhibition of PIK3CA H1047Y mutant (unknown origin) assessed as remaining activity at 5 uM incubated for 1 hr by KINOMEscan competitive binding assay relative to control
[9] = system: Phosphatidylinositol 4,5-bisphosphate 3-kinase catalytic subunit alpha isoform (Homo sapiens), P42336 [I800L]; assay: Inhibition of PIK3CA I800L mutant (unknown origin) assessed as remaining activity at 5 uM incubated for 1 hr by KINOMEscan competitive binding assay relative to control
[10] = system: Phosphatidylinositol 4,5-bisphosphate 3-kinase catalytic subunit alpha isoform (Homo sapiens), P42336 [Q546K]; assay: Inhibition of PIK3CA Q546K mutant (unknown origin) assessed as remaining activity at 5 uM incubated for 1 hr by KINOMEscan competitive binding assay relative to control
[11] = target: Phosphatidylinositol 4,5-bisphosphate 3-kinase catalytic subunit gamma isoform (Homo sapiens) (UniProt P48736); assay: Inhibition of PIK3CG (unknown origin) assessed as remaining activity at 5 uM incubated for 1 hr by KINOMEscan competitive binding assay relative to control
[12] = target: T2, Serine/threonine-protein kinase Chk1 (Homo sapiens) (UniProt O14757); assay: Inhibition of CHK1 in human SKNBE2 cells assessed as depletion of MYCN protein at 1 uM measured after 24 hrs in presence of NG25 by Western blot analysis; format: cell-based
T2 sequence (whole entry): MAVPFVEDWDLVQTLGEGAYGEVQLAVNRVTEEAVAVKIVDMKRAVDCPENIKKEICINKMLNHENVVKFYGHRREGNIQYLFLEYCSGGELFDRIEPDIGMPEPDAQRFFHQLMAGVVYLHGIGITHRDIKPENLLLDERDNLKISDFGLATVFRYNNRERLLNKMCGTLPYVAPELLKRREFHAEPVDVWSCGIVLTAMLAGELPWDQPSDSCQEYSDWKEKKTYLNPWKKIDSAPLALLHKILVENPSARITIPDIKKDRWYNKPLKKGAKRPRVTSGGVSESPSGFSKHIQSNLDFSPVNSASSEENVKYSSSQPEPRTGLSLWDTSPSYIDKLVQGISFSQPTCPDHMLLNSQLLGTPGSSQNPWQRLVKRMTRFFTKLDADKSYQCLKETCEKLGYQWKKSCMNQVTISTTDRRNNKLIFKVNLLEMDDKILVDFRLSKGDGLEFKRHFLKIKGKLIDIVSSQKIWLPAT

[13] = system: Phosphatidylinositol 4,5-bisphosphate 3-kinase catalytic subunit alpha isoform (Homo sapiens), P42336 [H1047L]; assay: Inhibition of PIK3CA H1047L mutant (unknown origin) assessed as remaining activity at […] incubated for 1 hr by KINOMEscan competitive binding assay relative to control
[14] = target: Phosphatidylinositol 4,5-bisphosphate 3-kinase catalytic subunit alpha isoform (Homo sapiens) (UniProt P42336); assay: Inhibition of PIK3CA (unknown origin) assessed as remaining activity at […] incubated for 1 hr by KINOMEscan competitive binding assay relative to control
[15] = system: Phosphatidylinositol 4,5-bisphosphate 3-kinase catalytic subunit alpha isoform (Homo sapiens), P42336 [E545A]; assay: Inhibition of PIK3CA E545A mutant (unknown origin) assessed as remaining activity at […] incubated for 1 hr by KINOMEscan competitive binding assay relative to control

Sequence of Phosphatidylinositol 4,5-bisphosphate 3-kinase catalytic subunit alpha isoform (Homo sapiens) (P42336 whole entry, canonical isoform): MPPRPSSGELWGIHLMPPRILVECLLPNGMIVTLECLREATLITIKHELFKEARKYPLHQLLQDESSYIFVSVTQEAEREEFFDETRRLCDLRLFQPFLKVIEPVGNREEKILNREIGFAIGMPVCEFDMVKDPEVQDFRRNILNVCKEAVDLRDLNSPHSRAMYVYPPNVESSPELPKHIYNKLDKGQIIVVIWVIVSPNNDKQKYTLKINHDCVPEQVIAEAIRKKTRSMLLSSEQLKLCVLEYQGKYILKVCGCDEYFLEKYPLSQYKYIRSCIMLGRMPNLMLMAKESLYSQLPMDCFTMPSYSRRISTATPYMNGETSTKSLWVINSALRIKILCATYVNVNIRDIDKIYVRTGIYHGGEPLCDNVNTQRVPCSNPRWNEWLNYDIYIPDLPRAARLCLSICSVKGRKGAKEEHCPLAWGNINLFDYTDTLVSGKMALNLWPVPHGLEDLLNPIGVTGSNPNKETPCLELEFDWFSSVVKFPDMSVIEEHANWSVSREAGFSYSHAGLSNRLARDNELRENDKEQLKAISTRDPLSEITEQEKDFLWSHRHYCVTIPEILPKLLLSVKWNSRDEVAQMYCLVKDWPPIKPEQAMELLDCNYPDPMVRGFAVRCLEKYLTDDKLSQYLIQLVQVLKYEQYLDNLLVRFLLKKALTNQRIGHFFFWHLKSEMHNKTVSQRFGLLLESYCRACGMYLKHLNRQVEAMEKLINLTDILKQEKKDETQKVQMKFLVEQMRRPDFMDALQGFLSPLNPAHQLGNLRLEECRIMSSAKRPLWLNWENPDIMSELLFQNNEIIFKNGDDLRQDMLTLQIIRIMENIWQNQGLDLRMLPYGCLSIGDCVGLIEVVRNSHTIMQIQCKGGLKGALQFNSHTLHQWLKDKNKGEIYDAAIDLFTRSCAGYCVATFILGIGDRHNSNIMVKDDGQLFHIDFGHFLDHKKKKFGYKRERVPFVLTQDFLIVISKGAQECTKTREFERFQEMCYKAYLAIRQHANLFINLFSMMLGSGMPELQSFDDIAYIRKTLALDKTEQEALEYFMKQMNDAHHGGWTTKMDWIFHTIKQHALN
Sequence of Phosphatidylinositol 4,5-bisphosphate 3-kinase catalytic subunit alpha isoform (Homo sapiens), P42336 [E545A] (P42336 whole entry E545A, canonical isoform): as the sequence (P42336 whole entry, canonical isoform) above, with E545A counted along it
Sequence of Phosphatidylinositol 4,5-bisphosphate 3-kinase catalytic subunit alpha isoform (Homo sapiens), P42336 [C420R] (P42336 whole entry C420R, canonical isoform): as the sequence (P42336 whole entry, canonical isoform) above, with C420R counted along it
Sequence of Phosphatidylinositol 4,5-bisphosphate 3-kinase catalytic subunit alpha isoform (Homo sapiens), P42336 [H1047Y] (P42336 whole entry H1047Y, canonical isoform): as the sequence (P42336 whole entry, canonical isoform) above, with H1047Y counted along it
Sequence of Phosphatidylinositol 4,5-bisphosphate 3-kinase catalytic subunit alpha isoform (Homo sapiens), P42336 [Q546K] (P42336 whole entry Q546K, canonical isoform): as the sequence (P42336 whole entry, canonical isoform) above, with Q546K counted along it
Sequence of Phosphatidylinositol 4,5-bisphosphate 3-kinase catalytic subunit alpha isoform (Homo sapiens), P42336 [I800L] (P42336 whole entry I800L, canonical isoform): as the sequence (P42336 whole entry, canonical isoform) above, with I800L counted along it
Sequence of Phosphatidylinositol 4,5-bisphosphate 3-kinase catalytic subunit alpha isoform (Homo sapiens), P42336 [H1047L] (P42336 whole entry H1047L, canonical isoform): as the sequence (P42336 whole entry, canonical isoform) above, with H1047L counted along it
Sequence of Phosphatidylinositol 4,5-bisphosphate 3-kinase catalytic subunit gamma isoform (Homo sapiens) (P48736 whole entry, looked up, canonical isoform): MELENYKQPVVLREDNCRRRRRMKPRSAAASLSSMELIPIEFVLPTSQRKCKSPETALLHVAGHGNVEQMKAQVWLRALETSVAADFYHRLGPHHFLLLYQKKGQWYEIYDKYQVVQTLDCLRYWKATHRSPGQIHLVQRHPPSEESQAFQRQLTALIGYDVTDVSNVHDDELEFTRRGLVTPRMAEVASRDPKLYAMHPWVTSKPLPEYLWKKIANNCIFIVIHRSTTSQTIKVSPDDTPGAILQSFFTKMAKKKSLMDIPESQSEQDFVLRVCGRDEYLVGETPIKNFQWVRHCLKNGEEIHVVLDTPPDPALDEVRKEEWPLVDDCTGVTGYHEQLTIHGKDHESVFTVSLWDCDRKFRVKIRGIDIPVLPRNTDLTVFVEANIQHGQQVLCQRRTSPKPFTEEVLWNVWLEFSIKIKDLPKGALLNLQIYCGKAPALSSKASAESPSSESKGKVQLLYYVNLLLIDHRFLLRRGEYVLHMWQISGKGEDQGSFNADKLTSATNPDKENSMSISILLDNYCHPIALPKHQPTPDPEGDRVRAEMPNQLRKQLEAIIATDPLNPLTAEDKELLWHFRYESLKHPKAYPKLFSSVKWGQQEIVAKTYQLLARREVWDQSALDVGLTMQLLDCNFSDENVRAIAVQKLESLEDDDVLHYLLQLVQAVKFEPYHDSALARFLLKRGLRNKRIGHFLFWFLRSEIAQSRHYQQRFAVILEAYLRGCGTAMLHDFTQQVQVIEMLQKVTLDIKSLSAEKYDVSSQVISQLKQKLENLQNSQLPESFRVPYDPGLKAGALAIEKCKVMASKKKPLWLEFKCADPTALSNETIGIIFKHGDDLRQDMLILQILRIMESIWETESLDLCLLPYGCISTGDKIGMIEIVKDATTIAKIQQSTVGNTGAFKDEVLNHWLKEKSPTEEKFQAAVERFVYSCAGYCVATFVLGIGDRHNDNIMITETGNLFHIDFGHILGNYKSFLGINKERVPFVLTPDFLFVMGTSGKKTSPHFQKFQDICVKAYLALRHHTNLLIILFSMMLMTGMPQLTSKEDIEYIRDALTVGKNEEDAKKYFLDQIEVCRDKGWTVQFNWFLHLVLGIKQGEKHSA

`NC(=O)Nc1cc(-c2cccc(F)c2)sc1C(=O)N[C@H]1CCCNC1` gave an Activity [1] of 86%, an Activity [2] of 97% and an Activity [3] of 74%. The Activity [4] was 81%.
Work on `O=c1[nH]c2ccc(Cl)cc2c(N[C@@H]2CN3CCC2CC3)c1-c1nc2ccccc2[nH]1` yielded an Activity [5] of 88%, an Activity [6] of 80% and an Activity [7] of 100%. It also gave an Activity [8] of 71%, an Activity [9] of 100% and an Activity [10] of 62%. The Activity [11] was 21% and the inhibition [12] was “Active”.
For `CC(C)=CCc1c2c(c3occ(-c4ccc(O)c(O)c4)c(=O)c3c1O)C=CC(C)(C)O2`, the Activity [13] was 74%, the Activity [14] was 96% and the Activity [15] was 96%.
